Reference: patent publication US20240164376A1, “SYNERGISTIC PLANT GROWTH STIMULANT COMPOSITIONS OF POTASSIUM MONO/DI-FORMATE WITH NITROGENOUS COMPOUNDS” (FERTIS INDIA PVT LTD, priority 2021, published 2024)

tested on: paddy grains; assay: Protein content in the paddy grains; assay type: in vivo

First: CNC(=O)NC [Dimethyl urea]
Second: NC(N)=O [Urea]
The “% Of Protein” value of the first is higher: 0.0081% for the first, 0.0063% for the second.

Going from `O=C(Nc1ccccc1)Nc1ccccc1` [Diphenyl urea] to `NC(=O)N(C=O)C=O` [N,Ndiformyl urea (NN-DFU), N,Ndiformyl urea], the “% Of Protein” value rises from 0.0089% to 0.0112%.

Compared with `O=CO.O=C[O-].[K+]` [Potassium diformate], `O=C[O-].[K+]` [Potassium formate] is lower in “% Of Protein” value: 0.0093% for the first, 0.0091% for the second.
